biological target: T1, Recombinant human Protein-tyrosine phosphatase1B (PTP1B) (Homo sapiens, UniProt P18031); assay: PTP1B enzyme inhibition assay (pNpp substrate); type: biochemical; details: inhibition of recombinant human PTP1B, pNpp 5 mM, 30 mins at 25° C; inhibitor concentration not given
T1 construct: Recombinant human Protein-tyrosine phosphatase1B (PTP1B) (amino acid 1-322 Biomol, USA); purchased Biomol, USA
T1 sequence (P18031 1-322): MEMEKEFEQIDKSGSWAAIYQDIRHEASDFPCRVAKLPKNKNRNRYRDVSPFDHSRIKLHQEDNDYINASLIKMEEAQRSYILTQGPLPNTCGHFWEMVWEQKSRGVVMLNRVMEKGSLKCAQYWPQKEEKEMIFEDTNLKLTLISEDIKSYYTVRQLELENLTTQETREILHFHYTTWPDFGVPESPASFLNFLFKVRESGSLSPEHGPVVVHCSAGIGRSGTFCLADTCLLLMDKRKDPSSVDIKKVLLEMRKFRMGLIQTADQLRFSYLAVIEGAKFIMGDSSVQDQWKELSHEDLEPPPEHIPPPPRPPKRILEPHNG
Method: Protein tyrosine phosphatase 1B (PTP1B) is an intracellular enzyme which functions by removing the phosphate groups from phosphorylated tyrosine residues of cellular proteins. PTP1B has been implicated as a negative regulator of insulin action and therefore is of therapeutic interest. The ability of the test compounds to inhibit the activity of PTP1B is determined using an enzyme inhibition assay.
The assay is performed using two independent substrates of PTP1B namely, p-nitrophenyl phosphate (pNpp) and the phosphorylated Epidermal growth factor receptor peptide (EGFR).
In the assay performed with pNpp, the action of PTP1B results in the release of p-nitrophenol, which is yellow in colour and can be measured at 410 nm. In the case of the assay using EGFR, action of PTP1B results in the release of free phosphate group. This is trapped using a reagent containing ammonium molybdate and malachite green resulting in a colored complex whose absorbance can be measured at 620 nm.
1× Assay buffer 50 mM HEPES (pH 7.4) • 1 mM EDTA • 1 mM DTT • 0.05% Igepal® CA-630
Dilute recombinant Human PTP1B 1:150 in 1× Assay buffer for 10× stock,
Prepare 10× stock of pNpp (50 mM) in 1× Assay buffer
Prepare 100× stock in 100% DMSO, dilute 1:10 with 1× Assay buffer to get 10× stock in 10% DMSO.
PTP1B inhibition assay was performed using recombinant human PTP1B. PTP1B (0.016 μg/well) was incubated in a buffer containing 50 mM HEPES, 1 mM DTT, 1 mM EDTA and 0.05% Igepal® CA-630 with or without inhibitor (10× stock, final DMSO concentration is 1%) for 30 mins at 25° C. This was followed by addition of p-Nitrophenyl phosphate (pNpp) substrate (5 mM). The final volume of the reaction mixture is 50 μL and experiment was done in 96 well half area plate. The incubation was continued for 30 mins at 25° C. The conversion of pNpp to p-Nitrophenol (pNp) was measured at 410 nm in Spectramaxplus Spectrophotometer (Molecular Devices, USA).

Row | Structure (SMILES) | Activity Score
1 | O=C(O)Cc1ccc(NC2=NC(=O)C(=Cc3ccc(-c4ccccc4)cc3)O2)cc1 [Compound 100, [4-(5-Biphenyl-4-ylmethylene-4-oxo-4,5-dihydro-oxazol-2-ylamino)-phenyl]-acetic acid] | (++) (++ = 20-50% inhibition)
2 | O=C(Cc1ccc(NC2=NC(=O)C(=Cc3ccc(-n4cccn4)cc3)S2)cc1)NS(=O)(=O)c1ccccc1 [Compound 103, N-(2-{4-[4-Oxo-5-(4-pyrazol-1-yl-benzylidene)-4,5-dihydro-thiazol-2-ylamino]-phenyl}-acetyl)-benzenesulfonamide] | (+) (+ = 10-20% inhibition)
3 | Cc1ccc(S(=O)(=O)NC(=O)Cc2ccc(NC3=NC(=O)C(=Cc4cc5ccccc5cc4OCc4ccccc4)S3)cc2)cc1.[Na] [Compound 104, N-(2-{4-[5-(3-Benzyloxy-naphthalen-2-ylmethylene)-4-oxo-4,5-dihydro-thiazol-2-ylamino]-phenyl}-acetyl)-4-methyl-benzenesulfonamide sodium salt] | (++) (++ = 20-50% inhibition)
4 | O=C([O-])Cc1ccc(NC2=NC(=O)C(=Cc3cc4ccccc4cc3OCc3ccc(F)cc3)S2)cc1.[Na+] [Compound 113, (4-{5-[3-(4-Fluoro-benzyloxy)-naphthalen-2-ylmethylene-4-oxo-4,5-dihydro-thiazol-2-ylamino)-phenyl]-acetyl}-sodium acetate] | (+++) (+++ = >50% inhibition)
5 | Cc1ccc(S(=O)(=O)NC(=O)Cc2ccc(NC3=NC(=O)C(=Cc4ccc5c(c4)OCCO5)S3)cc2)cc1 [Compound 125, N-(2-{4-[5-(2,3-Dihydro-benzo[1,4]dioxin-6-ylmethylene)-4-oxo-4,5-dihydro-thiazol-2-ylamino]-phenyl}-acetyl)-4-methyl-benzenesulfonamide] | (+++) (+++ = >50% inhibition)
6 | O=C(O)Cc1csc(NC2=NC(=O)C(=Cc3ccc(-c4ccccc4)cc3)S2)n1 [Compound 130, [2-(5-Biphenyl-4-ylmethylene-4-oxo-4,5-dihydro-thiazol-2-ylamino)-thiazol-4-yl]-acetic acid] | (++) (++ = 20-50% inhibition)
7 | Cc1ccc(S(=O)(=O)NC(=O)Cc2ccc(NC3=NC(=O)C(=Cc4ccc(-n5cnnn5)c(OCc5ccccc5)c4)S3)cc2)cc1.[Na] [Compound 131, N-(2-{4-[5-(3-Benzyloxy-4-tetrazol-1-yl-benzylidene)-4-oxo-4,5-dihydro-thiazol-2-ylamino]-phenyl}-acetyl)-4-methyl-benzenesulfonamide sodium salt] | (+++) (+++ = >50% inhibition)
8 | O=C(O)Cc1csc(NC2=NC(=O)C(=Cc3cc4ccccc4cc3OCc3ccccc3)S2)n1 [Compound 133, {2-[5-(3-Benzyloxy-naphthalen-2-ylmethylene)-4-oxo-4,5-dihydro-thiazol-2-ylamino]-thiazol-4-yl}-acetic acid] | (+++) (+++ = >50% inhibition)
9 | Cc1cc(C=C2SC(Nc3nc(CC(=O)O)cs3)=NC2=O)nn1-c1ccccc1 [Compound 134, {2-[5-(5-Methyl-1-phenyl-1H-pyrazol-3-ylmethylene)-4-oxo-4,5-dihydro-thiazol-2-ylamino]-thiazol-4-yl}-acetic acid] | (++) (++ = 20-50% inhibition)
10 | O=C(O)Cc1ccc(NC2=NC(=O)C(=Cc3cc4ccccc4cc3OCC3CCCO3)S2)cc1 (centres unmarked) [Compound 142, (4-{4-Oxo-5-[3-(tetrahydro-furan-2-ylmethoxy)-naphthalen-2-ylmethylene]-4,5-dihydro-thiazol-2-ylamino}-phenyl)-acetic acid] | (++) (++ = 20-50% inhibition)
11 | COc1c(C=C2SC(Nc3ccc(CC(=O)O)cc3)=NC2=O)ccc2ccccc12 [Compound 146, {4-[5-(1-Methoxy-naphthalen-2-ylmethylene)-4-oxo-4,5-dihydro-thiazol-2-ylamino]-phenyl}-acetic acid] | (+++) (+++ = >50% inhibition)
12 | O=C(O)COc1ccc2cc(C=C3SC(Nc4ccc(CC(=O)O)cc4)=NC3=O)ccc2c1 [Compound 163, {4-[5-(6-Carboxymethoxy-naphthalen-2-ylmethylene)-4-oxo-4,5-dihydro-thiazol-2-ylamino]-phenyl}-acetic acid] | (+++) (+++ = >50% inhibition)
13 | O=C(O)Cc1ccc(NC2=NC(=O)C(=Cc3ccc4[nH]ccc4c3)S2)cc1 [Compound 170, {4-[5-(H-Indol-5-ylmethylene)-4-oxo-4,5-dihydro-thiazol-2-ylamino]-phenyl}-acetic acid] | (+++) (+++ = >50% inhibition)
14 | Cc1ccc(S(=O)(=O)NC(=O)Cc2ccc(NC3=NC(=O)C(=Cc4ccc(N5CCN(c6ccccn6)CC5)cc4)S3)cc2)cc1.[Na] [Compound 173, 4-Methyl-N-[2-(4-{4-oxo-5-[4-(4-pyridin-2-yl-piperazin-1-yl)-benzylidene]-4,5-dihydro-thiazol-2-ylamino}-phenyl)-acetyl]-benzenesulfonamide sodium salt] | (+++) (+++ = >50% inhibition)
15 | COc1cc2ccccc2cc1C=C1SC(Nc2ccc(CCC(=O)[O-])cc2)=NC1=O.[Na+] [Compound 177, 3-{-4-[5-(3-Methoxy-naphthalen-2-ylmethylene)-4-oxo-4,5-dihydro-thiazol-2-ylamino]-phenyl}-sodium propionate] | (+++) (+++ = >50% inhibition)
16 | O=C(O)Cc1ccc(NC2=NC(=O)C(=Cc3ccc(-c4ccc(O)cc4)cc3)S2)cc1 [Compound 199, {4-[5-(4′-Hydroxy-biphenyl-4-ylmethylene)-4-oxo-4,5-dihydro-thiazol-2-ylamino]-phenyl}-acetic acid] | (+++) (+++ = >50% inhibition)
17 | O=C(O)Cc1ccc(NC2=NC(=O)C(=Cc3ccc(-c4ccccc4)cc3)S2)cc1C(=O)O [Compound 200, 5-(5-Biphenyl-4-ylmethylene-4-oxo-4,5-dihydro-thiazol-2-ylamino)-2-carboxymethyl-benzoic acid] | (+++) (+++ = >50% inhibition)
18 | O=C(O)COc1ccc(-c2ccc(C=C3SC(Nc4ccc(CC(=O)O)cc4)=NC3=O)cc2)cc1 [Compound 201, {4-[5-(4′-Carboxymethoxy-biphenyl-4-ylmethylene)-4-oxo-4,5-dihydro-thiazol-2-ylamino]-phenyl}-acetic acid] | (+++) (+++ = >50% inhibition)
19 | O=C([O-])CCc1ccc(NC2=NC(=O)C(=Cc3ccc4cc(F)ccc4c3)S2)cc1.[Na+] [Compound 205, 3-{4-[5-(6-Fluoro-naphthalen-2-ylmethylene)-4-oxo-4,5-dihydro-thiazol-2-ylamino]-phenyl}-sodium propionate] | (+++) (+++ = >50% inhibition)
20 | NS(=O)(=O)c1ccc(-c2ccc(C=C3SC(Nc4ccc(CC(=O)O)cc4)=NC3=O)cc2)cc1 [Compound 210, {4-[4-Oxo-5-(4′-sulfamoyl-biphenyl-4-ylmethylene)-4,5-dihydro-thiazol-2-ylamino]-phenyl}-acetic acid] | (+++) (+++ = >50% inhibition)
21 | Cc1ccc(S(=O)(=O)NC(=O)Cc2ccc(NC3=NC(=O)C(=Cc4ccc(-c5ccc(O)cc5)cc4)S3)cc2)cc1.[Na].[Na] [Compound 212, N-(2-{4-[5-(4′Hydroxy-biphenyl-4-ylmethylene)-4-oxo-4,5-dihydro-thiazol-2-ylamino]-phenyl}-acetyl)-4-methyl-benzenesulfonamide di-sodium salt] | (++) (++ = 20-50% inhibition)
22 | Cc1ccc(S(=O)(=O)NC(=O)Cc2ccc(NC3=NC(=O)C(=Cc4cc5ccccc5cc4OCC(=O)O)S3)cc2)cc1 [Compound 213, [3-(4-Oxo-2-{4-[2-oxo-2-(toluene-4-sulfonylamino)-ethyl]-phenylamino}-4H-thiazol-5-ylidenemethyl)-naphthalen-2-yloxy]-acetic acid] | (++) (++ = 20-50% inhibition)
23 | CCOc1ccc(-c2ccc(C=C3SC(Nc4ccc(CC(=O)NS(=O)(=O)c5ccc(C)cc5)cc4)=NC3=O)cc2)cc1.[Na] [Compound 214, N-(2-{4-[5-(4′-Ethoxy-biphenyl-4-ylmethylene)-4-oxo-4,5-dihydro-thiazol-2-ylamino]-phenyl}-acetyl)-4-methyl-benzenesulfonamide sodium salt] | (+++) (+++ = >50% inhibition)
